Patent publication US20160220569A1, “CDK4/6 Inhibitor Dosage Formulations For The Protection Of Hematopoietic Stem And Progenitor Cells During Chemotherapy” (G1 Therapeutics, Inc., priority 2015, published 2016)
Where two headings read alike, the source gives them in different places.

Test: 14-day oral gavage toxicokinetic study in rats
Type: in vivo
Conditions: male, rat, plasma, po; for concentration at 0.5 h / concentration at 1 h / concentration at 4 h / concentration at 8 h / concentration at 12 h / concentration at 24 h / concentration at […] / concentration at 2 h: rats; for half-life: read-out: t½ (converted)
Experimental: Plasma was obtained from blood samples collected from rats in a composite sampling scheme, with 3 samples collected per sex, per dose, at each target collection time, as illustrated in Table 21 to Table 25. Samples were collected from the vehicle control group on Day 1 and Day 14 at 3 hour after administration. […] Blood samples were collected in tubes containing K3EDTA as an anticoagulant and placed on ice until processed to plasma via centrifugation. Samples were stored frozen at −80° C. until shipment to the bioanalytical laboratory for analysis.
The following parameters were determined:
Cmax: Maximum observed plasma concentration (ng/mL).
A value of 0 ng/mL was assigned to all values below the lower limit of quantitation (BLQ, <10.0 ng/mL).
AUC(0-inf): Area under the plasma concentration vs. time curve extrapolated from 0 to infinity (ng*h/mL), calculated as AUC(0-t)+AUC(t-inf) where AUC(t-inf) is calculated as last measurable concentration (CLast) divided by ke, where ke is the elimination rate constant determined by linear regression of the last three analytically measured points on the log plasma concentration vs. time curve. The selection criteria of the data points for inclusion in the calculation of ke required that at least three data points representing the terminal phase (after Tmax) were regressed and that R2≧0.850 when rounded.
CL: Clearance (L/h/kg), calculated as the dose divided by AUC(0-t).
Vd: Volume of distribution (L/kg), calculated as dose divided by the product of ke and AUC(0-inf).
Vdss: Steady state volume of distribution (L/kg), calculated as clearance […] mean residence time, where mean residence time is calculated as the area under the first moment curve divided by AUC(0-t).
t½: Elimination half-life (h), calculated as ln(2)/ke, where ke is the elimination rate constant determined by linear regression. Half-life was defined as not determined if regression criteria (specified in AUC(0-inf) above) were not met.
Cmax/Dose: Normalized Cmax, calculated as Cmax divided by total dose.
AUC/Dose: Normalized AUC, calculated as AUC(0-t) divided by total dose.
ii. Statistical Analysis Mean and standard deviation (SD) were calculated in Watson. Values of BLQ were assigned a value of 0 ng/mL for mean calculations. Concentration values and derived TK parameters were reported to three significant figures.

[1] = 5 mg/kg, oral 5 mg/kg, Study Day 1, Male
[2] = 5 mg/kg, oral 5 mg/kg, Study Day 14, Male

SMILES: CN1CCN(c2ccc(Nc3ncc4cc5n(c4n3)C3(CCCCC3)CNC5=O)nc2)CC1 [Compound 1, 2′-((5-(4-methylpiperazin-1-yl)pyridin-2-yl)amino)-7′,8′-dihydro-6′H-spiro[cyclohexane-1,9′-pyrazino[1′,2′:1,5]pyrrolo[2,3-d]pyrimidin]-6′-one]
- concentration at 0.5 h (5 mg/kg, Individual Compound 1 Plasma Concentration, daily oral 5 mg/kg, Day 1, Male, 0.5 h): 225 ng/mL
- concentration at 1 h (5 mg/kg, Individual Compound 1 Plasma Concentration, daily oral 5 mg/kg, Day 1, Male, 1 h): 244 ng/mL
- concentration at 4 h (5 mg/kg, Individual Compound 1 Plasma Concentration, daily oral 5 mg/kg, Day 1, Male, 4 h): 562 ng/mL
- concentration at 8 h (5 mg/kg, Individual Compound 1 Plasma Concentration, daily oral 5 mg/kg, Day 1, Male, 8 h): 235 ng/mL
- concentration at 12 h (5 mg/kg, Individual Compound 1 Plasma Concentration, daily oral 5 mg/kg, Day 1, Male, 12 h): 206 ng/mL
- concentration at 24 h (5 mg/kg, Individual Compound 1 Plasma Concentration, daily oral 5 mg/kg, Day 1, Male, 24 h): 26.5 ng/mL
- concentration at 0.5 h (5 mg/kg, Individual Compound 1 Plasma Concentration, daily oral 5 mg/kg, Day 14, Male, 0.5 h): 205 ng/mL
- concentration at 1 h (5 mg/kg, Individual Compound 1 Plasma Concentration, daily oral 5 mg/kg, Day 14, Male, 1 h): 254 ng/mL
- concentration at 4 h (5 mg/kg, Individual Compound 1 Plasma Concentration, daily oral 5 mg/kg, Day 14, Male, 4 h): 512 ng/mL
- concentration at 12 h (5 mg/kg, Individual Compound 1 Plasma Concentration, daily oral 5 mg/kg, Day 14, Male, 12 h): 169 ng/mL
- concentration at 24 h (5 mg/kg, Individual Compound 1 Plasma Concentration, daily oral 5 mg/kg, Day 14, Male, 24 h): 11.1 ng/mL
- concentration at […] (5 mg/kg, Individual Compound 1 Plasma Concentration, daily oral 5 mg/kg, Day 14, Male, […]): 26 ng/mL
- concentration at 0.5 h (5 mg/kg, Mean Compound 1 Plasma Concentration, oral 5 mg/kg, Day 1, 0.5 h, Male): 237 ng/mL
- concentration at 1 h (5 mg/kg, Mean Compound 1 Plasma Concentration, oral 5 mg/kg, Day 1, 1 h, Male): 194 ng/mL
- concentration at 2 h (5 mg/kg, Mean Compound 1 Plasma Concentration, oral 5 mg/kg, Day 1, 2 h, Male): 254 ng/mL
- concentration at 4 h (5 mg/kg, Mean Compound 1 Plasma Concentration, oral 5 mg/kg, Day 1, 4 h, Male): 408 ng/mL
- concentration at 8 h (5 mg/kg, Mean Compound 1 Plasma Concentration, oral 5 mg/kg, Day 1, 8 h, Male): 276 ng/mL
- concentration at 12 h (5 mg/kg, Mean Compound 1 Plasma Concentration, oral 5 mg/kg, Day 1, 12 h, Male): 195 ng/mL
- concentration at 24 h (5 mg/kg, Mean Compound 1 Plasma Concentration, oral 5 mg/kg, Day 1, 24 h, Male): 25.6 ng/mL
- concentration at […] (5 mg/kg, Mean Compound 1 Plasma Concentration, oral 5 mg/kg, Day 1, […], Male): 16 ng/mL
- concentration at 0.5 h (5 mg/kg, Mean Compound 1 Plasma Concentration, oral 5 mg/kg, Day 14, 0.5 h, Male): 298 ng/mL
- concentration at 1 h (5 mg/kg, Mean Compound 1 Plasma Concentration, oral 5 mg/kg, Day 14, 1 h, Male): 258 ng/mL
- concentration at 2 h (5 mg/kg, Mean Compound 1 Plasma Concentration, oral 5 mg/kg, Day 14, 2 h, Male): 436 ng/mL
- concentration at 4 h (5 mg/kg, Mean Compound 1 Plasma Concentration, oral 5 mg/kg, Day 14, 4 h, Male): 421 ng/mL
- concentration at 8 h (5 mg/kg, Mean Compound 1 Plasma Concentration, oral 5 mg/kg, Day 14, 8 h, Male): 273 ng/mL
- concentration at 12 h (5 mg/kg, Mean Compound 1 Plasma Concentration, oral 5 mg/kg, Day 14, 12 h, Male): 198 ng/mL
- concentration at 24 h (5 mg/kg, Mean Compound 1 Plasma Concentration, oral 5 mg/kg, Day 14, 24 h, Male): 16.2 ng/mL
- concentration at […] (5 mg/kg, Mean Compound 1 Plasma Concentration, oral 5 mg/kg, Day 14, […], Male): 27.2 ng/mL
- AUC(0-inf) [1]: 4850 ng·h/mL
- AUC(0-t) [1]: 4680 ng·h/mL
- Cmax [1]: 408 ng/mL
- Tmax [1]: 4 h
- half-life [1]: 4.52 h
- AUC(0-inf) [2]: 5120 ng·h/mL
- AUC(0-t) [2]: 5030 ng·h/mL
- Cmax [2]: 436 ng/mL
- Tmax [2]: 2 h
- half-life [2]: 3.77 h
- concentration at 1 h (15 mg/kg, Individual Compound 1 Plasma Concentration, daily oral 15 mg/kg, Day 1, Male, 1 h): 614 ng/mL
- concentration at 2 h (15 mg/kg, Individual Compound 1 Plasma Concentration, daily oral 15 mg/kg, Day 1, Male, 2 h): 759 ng/mL
- concentration at 4 h (15 mg/kg, Individual Compound 1 Plasma Concentration, daily oral 15 mg/kg, Day 1, Male, 4 h): 1160 ng/mL
- concentration at 8 h (15 mg/kg, Individual Compound 1 Plasma Concentration, daily oral 15 mg/kg, Day 1, Male, 8 h): 696 ng/mL
- concentration at 12 h (15 mg/kg, Individual Compound 1 Plasma Concentration, daily oral 15 mg/kg, Day 1, Male, 12 h): 451 ng/mL
- concentration at […] (15 mg/kg, Individual Compound 1 Plasma Concentration, daily oral 15 mg/kg, Day 1, Male, […]): 49.7 ng/mL
- concentration at 0.5 h (15 mg/kg, Individual Compound 1 Plasma Concentration, daily oral 15 mg/kg, Day 14, Male, 0.5 h): 741 ng/mL
- concentration at 1 h (15 mg/kg, Individual Compound 1 Plasma Concentration, daily oral 15 mg/kg, Day 14, Male, 1 h): 1020 ng/mL
- concentration at 2 h (15 mg/kg, Individual Compound 1 Plasma Concentration, daily oral 15 mg/kg, Day 14, Male, 2 h): 1350 ng/mL
- concentration at 4 h (15 mg/kg, Individual Compound 1 Plasma Concentration, daily oral 15 mg/kg, Day 14, Male, 4 h): 1160 ng/mL
- concentration at 8 h (15 mg/kg, Individual Compound 1 Plasma Concentration, daily oral 15 mg/kg, Day 14, Male, 8 h): 1190 ng/mL
- concentration at 12 h (15 mg/kg, Individual Compound 1 Plasma Concentration, daily oral 15 mg/kg, Day 14, Male, 12 h): 583 ng/mL
- concentration at 24 h (15 mg/kg, Individual Compound 1 Plasma Concentration, daily oral 15 mg/kg, Day 14, Male, 24 h): 61.4 ng/mL
- concentration at […] (15 mg/kg, Individual Compound 1 Plasma Concentration, daily oral 15 mg/kg, Day 14, Male, […]): 89.9 ng/mL
- concentration at 0.5 h (15 mg/kg, Mean Compound 1 Plasma Concentration, oral 15 mg/kg, Day 1, 0.5 h, Male): 620 ng/mL
- concentration at 1 h (15 mg/kg, Mean Compound 1 Plasma Concentration, oral 15 mg/kg, Day 1, 1 h, Male): 810 ng/mL
- concentration at 2 h (15 mg/kg, Mean Compound 1 Plasma Concentration, oral 15 mg/kg, Day 1, 2 h, Male): 1060 ng/mL
